Test results published in patent US7951560B2, “Delta 4,5 glycuronidase compositions and methods related thereto” (Massachusetts Institute of Technology, priority 2002, dated 2011).

Columns and labels:
[1] = test system: Δ4, 5 glycuronidase; assay: Extended timecourse hydrolysis of non-heparin disaccharides; assay type: biochemical, F. heparinum; details: after approximately 18 hours, considerably higher enzyme concentrations
Protocol: None of the non-heparin disaccharides were hydrolyzed under the conditions for measuring substrate kinetics. […] At the same time, these disaccharides were slowly hydrolyzed to varying degrees when the enzyme reactions were conducted over a much longer timecourse (>12 hours) and at considerably higher enzyme concentrations. After approximately 18 hours, greater than 80% of monosulfated chondroitin disaccharide (ΔUGalNac6S) was hydrolyzed, whereas the non-sulfated chondroitin (ΔUGalNAc) and the hyaluronan disaccharide (ΔUH) were still present at approximately 40% and 65%, respectively. The importance of the linkage position is, therefore, not absolute. The apparently positive effect of chondroitin 6-O-sulfation within the galactosamine is consistent with our results for the heparin substrates and provides further evidence for the influence of this position in dictating substrate specificity.

[2] = biological target: T1, recombinant Δ4, 5 glycuronidase (Δ4,5^Δ20) (Pedobacter heparinus, UniProt C6Y1N7); assay: Kinetic parameters of Δ4, 5 glycuronidase for disaccharide substrates (loss of absorbance at 232 nm, Michaelis-Menten fit); assay type: biochemical, F. heparinum; details: conditions for measuring substrate kinetics
T1 sequence (C6Y1N7 21-402): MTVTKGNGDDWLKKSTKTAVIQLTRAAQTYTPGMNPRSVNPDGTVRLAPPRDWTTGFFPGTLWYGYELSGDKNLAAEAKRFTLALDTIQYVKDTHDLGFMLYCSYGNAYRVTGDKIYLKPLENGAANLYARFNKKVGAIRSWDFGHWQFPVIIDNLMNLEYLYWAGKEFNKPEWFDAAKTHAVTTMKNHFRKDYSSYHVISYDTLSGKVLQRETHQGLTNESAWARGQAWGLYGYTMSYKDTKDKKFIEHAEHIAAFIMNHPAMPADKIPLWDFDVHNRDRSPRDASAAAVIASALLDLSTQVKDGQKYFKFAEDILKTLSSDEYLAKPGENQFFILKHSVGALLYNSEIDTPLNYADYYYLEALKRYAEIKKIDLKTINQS
Protocol: Assay for enzyme activity and determination of kinetic parameters. Standard reactions were carried out at 30° C. and included 100 mM sodium phosphate buffer, pH 6.4, 50 mM NaCl, 500 μM disaccharide substrate and 200 nM enzyme in a 100 μl reaction volume. Hydrolysis of heparin disaccharides was determined spectrophotometrically by measuring the loss of the Δ4, 5 chromophore measured at 232 nm Substrate hydrolysis was calculated using the following molar extinction coefficients empirically determined for each disaccharide substrate: ΔUHNAc, ε232=4,524; ΔUHNAc6S, ε232=4,300; ΔUHNS, ε232=6,600; ΔUHNS,6S, ε232=6,075; ΔUHNH26S, ε232=4,826; ΔU2SHNS, ε232=4,433. Initial rates (Vo) were extrapolated from linear activities representing <10% substrate turnover and fit to pseudo first-order kinetics. For kinetic experiments, disaccharide concentration for each respective substrate was varied from 48 to 400 μM concentrations. Km and kcat values were extrapolated from Vo vs. [S] curves fit to the Michaelis Menten equation by a non-linear, least squares regression.
The specificity of the Δ4, 5 glycuronidase acting on various glycosaminoglycan disaccharide substrates was investigated. The various substrates examined included both heparin and chondroitin disaccharides as well as an hyaluronadate. In particular, we considered the possibility of any structural discriminations pertaining to glycosidic linkage position (1→4 vs. 1→3) and relative sulfation state within the disaccharide. For each substrate, kinetic parameters were determined based on substrate saturation profiles that fit Michaelis-Menten assumptions (FIG. 8).

[3] = test system: Δ4, 5 glycuronidase; assay: Detection of Δ4, 5 glycuronidase activity by capillary electrophoresis on heparinase-digested heparin; assay type: biochemical, F. heparinum
Protocol: Detection of Δ4, 5 glycuronidase activity by capillary electrophoresis. 200 μg of heparin (Celsus Laboratories) was subject to exhaustive heparinase digestion as described [Venkataraman, G., Shriver, Z., Raman, R., and Sasisekharan, R., 1999, Science 286, 537-42] with certain modifications that included a 50 mM PIPES buffer, pH 6.5 with 100 mM NaCl in a 100 μl reaction volume. Following heparinase treatment, 25 picomoles of Δ4, 5 glycuronidase was added to one-half of the original reaction (pre-equilibrated at 30° C.). 20 μl aliquots were removed at 1 minute and 30 minutes and activity quenched by heating at 95° C. for 10 minutes. 20 μl of the minus Δ4, 5 control (also heated for 10 minutes) was used as the 0 time point. Disaccharide products were resolved by capillary electrophoresis run for 25 minutes under positive polarity mode as previously described [Rhomberg, A. J., Ernst, S., Sasisekharan, R., and Biemann, K., 1998, Proc Natl Acad Sci USA 95, 4176-81].
In this manner, the Δ4, 5 should be very useful in assessing the composition of disaccharides resulting from prior heparinase treatment of heparin/heparan sulfate. For this particular experiment, we pre-treated 200 μg of heparin with a heparinase cocktail. This exhaustive digestion was then directly followed by a relatively short (1 minute) or long (30 minute) Δ4, 5 glycuronidase treatment carried out under optimal reaction conditions. The disaccharide products were then resolved by capillary electrophoresis. The electrophoretic mobility profile for the Δ4, 5 treated saccharides were then directly compared to the untreated control (i.e., heparinase treatment only) run under identical conditions (FIG. 9). 7 disaccharide peaks were present in the capillary electrophoretogram corresponding to the heparinase only control (A.). A structural assignment for each one of these peaks was made based on previously established compositional analyses. […] Predictably, the relative amplitude and area of these peaks remained the same, over the entire timecourse of the Δ4, 5 preincubation. This unchanging result extended to 18 hours. On the other hand, peaks corresponding to disaccharides lacking the 2-O sulfate were eliminated.

[4] = Pilot expression of the full-length enzyme in E. coli: solubility and activity
Text: Using PCR, we cloned from the F. heparinum genome both the full-length enzyme and the “mature” enzyme lacking the N-terminal 20 amino acid signal sequence (Δ4,5^Δ20) into a T7-based expression plasmid. Cloning into pET28a permitted the expression of the glycuronidase as an N-terminal 6× His-tag fusion protein. Pilot expression studies focused on the full-length enzyme. In these initial experiments, we examined several different induction conditions such as temperature, time and length of induction, and even IPTG concentrations.

Molecule: CC(=O)N[C@H]1C(O)O[C@H](COS(=O)(=O)[O-])[C@H](O)[C@@H]1OC1OC(C(=O)[O-])=C[C@H](O)[C@H]1O.[Na+].[Na+] (stereo partly shown) [ΔUGalNac6S]
- disaccharide hydrolyzed [1]: greater than 80%

Molecule: CC(=O)NC1C(O)OC(CO)C(O)C1OC1OC(C(=O)O)=CC(O)C1O (stereo not shown) [ΔUGalNAc]
- disaccharide still present [1]: approximately 40%

Molecule: O=C(O)C1=C[C@H](O)[C@@H](O)[C@H](O[C@H]2[C@H](O)[C@@H](NS(=O)(=O)O)C(O)O[C@@H]2CO)O1 (stereo partly shown) [ΔUHNS]
- substrate status / substrate preference [2]: less good as substrates
- hydrolysis by 30 minutes Δ4, 5 treatment [3]: completely depleted
- hydrolyzed after 1 minute Δ4, 5 treatment [3]: ~50%

Molecule: CC(=O)N[C@H]1C(O)O[C@H](CO)[C@@H](O[C@@H]2OC(C(=O)O)=C[C@H](O)[C@H]2O)[C@@H]1O (stereo partly shown) [ΔUHNac]
- substrate status / substrate preference [2]: best substrates

Molecule: CC(=O)NC1C(O)OC(CO)C(O)C1OC1OC(C(=O)O)=CC(O)C1O (stereo not shown) [ΔUH]
- disaccharide still present [1]: ~65%

Molecule: O=C(O)C1=C[C@H](O)[C@@H](O)[C@H](O[C@H]2[C@H](O)[C@@H](NS(=O)(=O)O)C(O)O[C@@H]2COS(=O)(=O)O)O1 (stereo partly shown) [ΔUHNS, 6S]
- substrate status / substrate preference [2]: roughly in the middle
- hydrolysis by 30 minutes Δ4, 5 treatment [3]: completely depleted
- hydrolyzed after 1 minute Δ4, 5 treatment [3]: approximately 75%

Molecule: CC(=O)N[C@H]1C(O)O[C@H](COS(=O)(=O)O)[C@@H](O[C@@H]2OC(C(=O)O)=C[C@H](O)[C@H]2O)[C@@H]1O (stereo partly shown) [ΔUHNAc, 6S]
- substrate status / substrate preference [2]: best substrates
- hydrolysis after one minute Δ4, 5 treatment (in words) [3]: essentially hydrolyzed

Molecule: O=C(O)C1=C[C@H](O)[C@@H](OS(=O)(=O)O)[C@H](O[C@H]2[C@H](O)[C@@H](NS(=O)(=O)O)[C@@H](O)O[C@@H]2CO)O1 [ΔU2SHNS]
- substrate status / substrate preference [2]: not a substrate

Molecule: N[C@H]1C(O)O[C@H](COS(=O)(=O)O)[C@@H](O[C@@H]2OC(C(=O)O)=C[C@H](O)[C@H]2O)[C@@H]1O (stereo partly shown) [ΔUHNH2, 6S]
- substrate status / substrate preference [2]: less good as substrates

B1: full-length enzyme: full-length 402 amino acid Δ4, 5 glycuronidase, SEQ ID NO:3, expressed as N-terminal 6× His-tag fusion (protein, listed as Flavobacterium heparinum)
chain: MKSLLSAFVATIALIGSANGMTVTKGNGDDWLKKSTKTAVIQLTRAAQTYTPGMNPRSVNPDGTVRLAPPRDWTTGFFPGTLWYGYELSGDKNLAAEAKRFTLALDTIQYVKDTHDLGFMLYCSYGNAYRVTGDKIYLKPLENGAANLYARFNKKVGAIRSWDFGHWQFPVIIDNLMNLEYLYWAGKEFNKPEWFDAAKTHAVTTMKNHFRKDYSSYHVISYDTLSGKVLQRETHQGLTNESAWARGQAWGLYGYTMSYKDTKDKKFIEHAEHIAAFIMNHPAMPADKIPLWDFDVHNRDRSPRDASAAAVIASALLDLSTQVKDGQKYFKFAEDILKTLSSDEYLAKPGENQFFILKHSVGALLYNSEIDTPLNYADYYYLEALKRYAEIKKIDLKTINQS
modifications: N-terminal 6xHis tag
- solubility on recombinant expression ([4]; N-terminal 6× His-tag fusion, all induction conditions examined): nearly exclusively as an insoluble fraction
- activity of partially purified, solubilised enzyme ([4]; solubilised with detergents (e.g., CHAPS), salt, glycerol): largely inactive
